Here are results for 3 substances from patent US7037891B2, “Methods of modulating G-protein-coupled receptor kinase-associated signal transduction” (Children's Medical Center Corporation, priority 1997, dated 2006).

The nature of experiment [1]: Reduction of weight and appetite of normal mice. Type of experiment: in vivo. The following applies: for change in body weight as compared to control / food consumption as compared to control: NDP-αMSH 0.9 μg/kg BW; for change in body weight as compared to control: KO24H107 21 mg/kg, or both (FIG. 7A); for food consumption as compared to control: KO24H107 21 mg/kg, or both (FIG. 7B). How it is done: 18 Sabra male mice, 8 weeks old, were used and were divided into four groups as followed:
The animals were weighed before trial and periodically during the trial.
At the same time, food was weighted before it was introduced into cages and at the end of each tested period. From this point on, the follow-up included both weighing of the mice and of the food for the short period, every couple of hours, until night, and later on for the long period, each 24 hour cycle.
The results of FIG. 7A are shown as the percentage of change in body weight as compared to the initial weight for each mice, and then averaged for each group. The calculation of food consumption (FIG. 7B) was calculated in each group relative to the total weight of all animals (4 or 5 animals) and averaged separately for each group.
The above experiment was conducted again with another compound comprising a GRK-derived peptide KO24H112 (SEQ ID NO:5) 16 animals were used as follows: […]

Experiment [2] in a line: Type II diabetes in sand rats: blood-glucose after i.p. injection. Type of experiment: in vivo, sand rats (psamomys obesus). The following applies: diabetic sand-rats. From the text: Sand-rats (psamomys) which are genetically prone to develop Type II diabetes were used in this study. The genetically selected sand-rats, 3 to 6 months old, were fed an energy-rich diet (Weizmann HE) for about 3 to 10 days until they became diabetic, as judged by their elevated blood-glucose level (see R. Kalman et al., “The Efficiency of Sand Rat Metabolism is Responsible for Development of Obesity and Diabetes”, J. of Basic & Clinical Physiology & Pharmacology (1993), vol. 4, no. 1–2, pp 57–68, the pertinent portions of which are incorporated herein by reference).
The diabetic sand-rats were injected i.p. once a week with a compound comprising GRK-derived peptide K024H107 (SEQ ID NO:10) at a dose of 10 mg/kg. The peptide was prepared by diluting a 10 mM solution of the peptide in 100% DMSO with phosphate buffered saline (PBS) containing 0.1% bovine serum albumin (BSA) to a concentration of 400 μM. […] of the 10 mM peptide in DMSO solution was mixed with 160 μl of 1.6M NH4HCO3 and heated for 40 minutes at 100° C. The resultant solution was then diluted to 400 μM in 2 M Hepes buffer (pH 7.0). This peptide stock solution was labeled “tbi”. The vehicle of the solution for injection included 8% DMSO, 0.67M ammonium bicarbonate, and 2M Hepes. Control animals received an i.p. injection of the vehicle only.

The next experiment deals with C6 glioblastoma cells. The experiment can be described thus: Intracellular cyclic AMP levels (EIA) after isoproterenol activation. The experiment is classed as cell-based. From the text:
It is well known that after activation of the various GPCRs there is an activation of the adenolate cyclase by G-proteins. This raises the cyclic-AMP levels in the cell, and these levels are then decreased due to the desensitization of the receptors by GRK. Thus it is expected that inhibition of GAST will eliminate this decrease in the cyclic AMP levels, and will cause a constitutive increase in cAMP levels.
C6 glioblastoma cells, which are known to express the β-adrenagic receptor (the substrate of GRK). have been used.
To the cells the following compounds were added:
The amount of the activity was measured by measuring the increase of intracellular cyclic AMP levels, which were measured using the commercially available kit of Biotrack Cellular Communication Assay cyclic-AMP enzyme—immunoassay (EIA) system.

Turning to “KO24H112: GRK-derived peptide; SEQ ID NO.: 15 in b61, printed SEQ ID NO:5 in b230 (LLRRHSI; bARK1)”, in experiment [1] (normal mice, 23.2 mg/kg and 31.5 mg/kg, vs vehicle (FIG. 8A)), the weight change entry was “effective in reducing both body weight and consumption”. Moreover, the “change in food consumption” value in experiment [1] (normal mice, 23.2 mg/kg and 31.5 mg/kg, vs vehicle (FIG. 8B)) is “effective in reducing both body weight and consumption”.
As for “K024H107: GRK-derived peptide, SEQ ID NO.: 10 (LLRRHS; bARK1)”, in experiment [2] (i.p. 10 mg/kg once a week), the “animals that became normoglycemic already after the first injection (responders)” value was determined as 4 animals and the “rest of the treated animals (nonresponders): normoglycemia” value was “became nornoglycemic after three additional weekly injections”. Also, the blood-glucose entry in experiment [2] (i.p. 10 mg/kg, after a single injection, vs vehicle controls (FIG. 3, 4)) is “dramatic decrease in blood-glucose to the normal level”. The “cyclic AMP levels” value with C6 glioblastoma cells (10 μM compound added first, 1 μM isoproterenol an hour later (FIG. 6)) is reported as “rose significantly”. The “cyclic AMP level” value in the experiment with C6 glioblastoma cells (order reversed: 1 μM isoproterenol first, 10 μM compound one hour later (FIG. 6)) is on record as “hardly changed”. Besides, in experiment [1] (normal Sabra male mice), the “change in body weight as compared to control” value was “weight decrease” and the “food consumption as compared to control” value is “decrease in food consumption”. The “weight and food consumption effect compared among the three treated groups” value in experiment [1] (normal Sabra male mice, compound alone 21 mg/kg vs NDP-αMSH and combination (FIG. 7A, 7B)) was “strongest effect”.
Turning to NDP-αMSH [reference compound], in experiment [1] (normal Sabra male mice), the “change in body weight as compared to control” value is “weight decrease” and the “food consumption as compared to control” value is “decrease in food consumption”.
